Data reported in PubChem BioAssay (NCI).
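How tested: cells in 96-well plates exposed to compound for 48 hours at five concentrations. Definition used: TGI = concentration required for complete inhibition of growth.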

Legend:
Assay in all cases: NCI-60 cell line screen, 48 h
NCI-H226 lung = system: NCI-H226 lung
SF-268 CNS = system: SF-268 CNS
HCT-116 colon = system: HCT-116 colon
SNB-75 CNS = system: SNB-75 CNS
MDA-MB-231 breast = system: MDA-MB-231 breast
MALME-3M melanoma = system: MALME-3M melanoma
A549 NSCLC = system: A549 NSCLC
IGROV1 ovarian = system: IGROV1 ovarian
DU-145 prostate = system: DU-145 prostate
BT-549 breast = system: BT-549 breast
SN12C renal = system: SN12C renal
MDA-MB-435 = system: MDA-MB-435
M14 melanoma = system: M14 melanoma
OVCAR-4 ovarian = system: OVCAR-4 ovarian
EKVX NSCLC = system: EKVX NSCLC
KM12 colon = system: KM12 colon
HCC-2998 colon = system: HCC-2998 colon
NCI-H23 lung = system: NCI-H23 lung
OVCAR-5 ovarian = system: OVCAR-5 ovarian
NCI-H460 lung = system: NCI-H460 lung
786-0 renal = system: 786-0 renal
SW-620 colon = system: SW-620 colon
UO-31 renal = system: UO-31 renal
RPMI-8226 leukemia = system: RPMI-8226 leukemia
OVCAR-8 ovarian = system: OVCAR-8 ovarian
CCRF-CEM leukemia = system: CCRF-CEM leukemia
SK-OV-3 ovarian = system: SK-OV-3 ovarian
RXF 393 renal = system: RXF 393 renal
SNB-19 CNS = system: SNB-19 CNS
HT29 colon = system: HT29 colon
SF-295 CNS = system: SF-295 CNS
COLO 205 colon = system: COLO 205 colon
SK-MEL-28 melanoma = system: SK-MEL-28 melanoma
HS 578T breast = system: HS 578T breast
OVCAR-3 ovarian = system: OVCAR-3 ovarian
CAKI-1 renal = system: CAKI-1 renal
HL-60(TB) leukemia = system: HL-60(TB) leukemia
HCT-15 colon = system: HCT-15 colon
T-47D breast = system: T-47D breast
NCI/ADR-RES ovarian = system: NCI/ADR-RES ovarian
PC-3 prostate = system: PC-3 prostate
UACC-62 melanoma = system: UACC-62 melanoma
U251 CNS = system: U251 CNS
SK-MEL-2 melanoma = system: SK-MEL-2 melanoma
SR leukemia = system: SR leukemia
MDA-N = system: MDA-N
MCF7 breast = system: MCF7 breast
ACHN renal = system: ACHN renal
K-562 leukemia = system: K-562 leukemia
MOLT-4 leukemia = system: MOLT-4 leukemia
LOX IMVI melanoma = system: LOX IMVI melanoma
HOP-62 NSCLC = system: HOP-62 NSCLC
UACC-257 melanoma = system: UACC-257 melanoma
TK-10 renal = system: TK-10 renal
SK-MEL-5 melanoma = system: SK-MEL-5 melanoma
NCI-H522 lung = system: NCI-H522 lung
HOP-92 NSCLC = system: HOP-92 NSCLC
A498 renal = system: A498 renal
SF-539 CNS = system: SF-539 CNS

Work on `CC1(c2ccccc2)CCN(C2CC2)CO1` (stereo unspecified) yielded a TGI (NCI-H226 lung) greater than 100 µM, a TGI (SF-268 CNS) of 35.4 µM and a TGI (HCT-116 colon) of 40.9 µM. For the same compound, the TGI (SNB-75 CNS) was greater than 100 µM, the TGI (MDA-MB-231 breast) was 38.4 µM and the TGI (MALME-3M melanoma) was 34.4 µM. For the same compound, the TGI (A549 NSCLC) was greater than 100 µM, the TGI (IGROV1 ovarian) was 40.2 µM and the TGI (DU-145 prostate) was greater than 100 µM. The TGI (BT-549 breast) was 32.3 µM, the TGI (SN12C renal) was 36.6 µM and the TGI (MDA-MB-435) was greater than 100 µM. It also gave a TGI (M14 melanoma) of 31 µM, a TGI (OVCAR-4 ovarian) of 33.9 µM and a TGI (EKVX NSCLC) of 41.4 µM. For the same compound, the TGI (KM12 colon) was 30.4 µM, the TGI (HCC-2998 colon) was 30.8 µM and the TGI (NCI-H23 lung) was 85.2 µM. It also gave a TGI (OVCAR-5 ovarian) of 33.3 µM, a TGI (NCI-H460 lung) of 28.1 µM and a TGI (786-0 renal) of 29.9 µM. For the same compound, the TGI (SW-620 colon) was 36.2 µM, the TGI (UO-31 renal) was 35.8 µM and the TGI (RPMI-8226 leukemia) was greater than 100 µM. For the same compound, the TGI (OVCAR-8 ovarian) was greater than 100 µM, the TGI (CCRF-CEM leukemia) was greater than 100 µM and the TGI (SK-OV-3 ovarian) was greater than 100 µM. For the same compound, the TGI (RXF 393 renal) was 69.3 µM, the TGI (SNB-19 CNS) was greater than 100 µM and the TGI (HT29 colon) was 35.7 µM. For the same compound, the TGI (SF-295 CNS) was greater than 100 µM, the TGI (COLO 205 colon) was 39.8 µM and the TGI (SK-MEL-28 melanoma) was 37.5 µM. It also gave a TGI (HS 578T breast) of 44 µM, a TGI (OVCAR-3 ovarian) of 31.7 µM and a TGI (CAKI-1 renal) of 36.5 µM. It also gave a TGI (HL-60(TB) leukemia) greater than 100 µM, a TGI (HCT-15 colon) of 30.1 µM and a TGI (T-47D breast) of 45.1 µM. The TGI (NCI/ADR-RES ovarian) was 46.6 µM, the TGI (PC-3 prostate) was greater than 100 µM and the TGI (UACC-62 melanoma) was 32 µM. For the same compound, the TGI (U251 CNS) was greater than 100 µM, the TGI (SK-MEL-2 melanoma) was greater than 100 µM and the TGI (SR leukemia) was 65.5 µM. The TGI (MDA-N) was 31 µM, the TGI (MCF7 breast) was 32 µM and the TGI (ACHN renal) was 31.7 µM. It also gave a TGI (K-562 leukemia) greater than 100 µM, a TGI (MOLT-4 leukemia) of 43.5 µM and a TGI (LOX IMVI melanoma) of 39.9 µM. For the same compound, the TGI (HOP-62 NSCLC) was greater than 100 µM, the TGI (UACC-257 melanoma) was 47.8 µM and the TGI (TK-10 renal) was 26.7 µM. It also gave a TGI (SK-MEL-5 melanoma) greater than 100 µM.
`Nc1nc(N)c2ncn(-c3ccc(Br)cc3)c2n1` showed a TGI (NCI-H226 lung) greater than 100 µM, a TGI (SF-268 CNS) greater than 63.8 µM and a TGI (HCT-116 colon) greater than 100 µM. It also gave a TGI (SNB-75 CNS) of 31.2 µM, a TGI (MDA-MB-231 breast) greater than 86.1 µM and a TGI (MALME-3M melanoma) greater than 44.9 µM. The TGI (NCI-H522 lung) was greater than 42.5 µM, the TGI (A549 NSCLC) was greater than 100 µM and the TGI (HOP-92 NSCLC) was greater than 38.1 µM. For the same compound, the TGI (IGROV1 ovarian) was 41.5 µM, the TGI (DU-145 prostate) was greater than 100 µM and the TGI (BT-549 breast) was greater than 100 µM. It also gave a TGI (SN12C renal) of 75.6 µM, a TGI (MDA-MB-435) greater than 100 µM and a TGI (M14 melanoma) greater than 69.2 µM. It also gave a TGI (OVCAR-4 ovarian) greater than 100 µM, a TGI (EKVX NSCLC) of 88.4 µM and a TGI (KM12 colon) greater than 45.7 µM. It also gave a TGI (HCC-2998 colon) greater than 100 µM, a TGI (NCI-H23 lung) greater than 93.2 µM and a TGI (OVCAR-5 ovarian) greater than 73.1 µM. The TGI (NCI-H460 lung) was greater than 100 µM, the TGI (786-0 renal) was greater than 100 µM and the TGI (SW-620 colon) was greater than 100 µM. For the same compound, the TGI (UO-31 renal) was greater than 50.6 µM, the TGI (RPMI-8226 leukemia) was greater than 56.1 µM and the TGI (OVCAR-8 ovarian) was greater than 55.7 µM. For the same compound, the TGI (CCRF-CEM leukemia) was 34.7 µM, the TGI (SK-OV-3 ovarian) was 73.9 µM and the TGI (RXF 393 renal) was greater than 78.6 µM. For the same compound, the TGI (SNB-19 CNS) was greater than 100 µM, the TGI (HT29 colon) was greater than 45.6 µM and the TGI (SF-295 CNS) was greater than 100 µM. For the same compound, the TGI (COLO 205 colon) was greater than 100 µM, the TGI (SK-MEL-28 melanoma) was greater than 100 µM and the TGI (HS 578T breast) was 25.3 µM. For the same compound, the TGI (OVCAR-3 ovarian) was greater than 64 µM, the TGI (CAKI-1 renal) was greater than 45.3 µM and the TGI (HCT-15 colon) was greater than 100 µM. For the same compound, the TGI (T-47D breast) was greater than 100 µM, the TGI (NCI/ADR-RES ovarian) was 50.8 µM and the TGI (PC-3 prostate) was greater than 65 µM. For the same compound, the TGI (UACC-62 melanoma) was greater than 66.8 µM, the TGI (A498 renal) was greater than 61.9 µM and the TGI (U251 CNS) was greater than 100 µM. For the same compound, the TGI (SK-MEL-2 melanoma) was 41.5 µM, the TGI (SR leukemia) was 3.2 µM and the TGI (MDA-N) was greater than 100 µM. For the same compound, the TGI (MCF7 breast) was greater than 57.1 µM, the TGI (ACHN renal) was greater than 52.8 µM and the TGI (K-562 leukemia) was 38.3 µM. For the same compound, the TGI (MOLT-4 leukemia) was 37.3 µM, the TGI (LOX IMVI melanoma) was greater than 100 µM and the TGI (SF-539 CNS) was 46.5 µM. It also gave a TGI (HOP-62 NSCLC) greater than 59.8 µM, a TGI (UACC-257 melanoma) greater than 100 µM and a TGI (TK-10 renal) greater than 100 µM. For the same compound, the TGI (SK-MEL-5 melanoma) was greater than 100 µM.
`CC12c3c4cccc3Oc3cc(N)cc(c31)Oc1cc(N)cc(c12)O4` was tested, and the TGI (NCI-H226 lung) was 13.6 µM, the TGI (SF-268 CNS) was 10.5 µM and the TGI (HCT-116 colon) was 9.44 µM. The TGI (SNB-75 CNS) was 14.7 µM, the TGI (MDA-MB-231 breast) was 27.4 µM and the TGI (MALME-3M melanoma) was 10.8 µM. It also gave a TGI (NCI-H522 lung) of 4.74 µM, a TGI (A549 NSCLC) greater than 40.7 µM and a TGI (HOP-92 NSCLC) of 74.5 µM. The TGI (IGROV1 ovarian) was 13.6 µM, the TGI (DU-145 prostate) was 22.6 µM and the TGI (BT-549 breast) was 13 µM. For the same compound, the TGI (SN12C renal) was 28.6 µM, the TGI (MDA-MB-435) was 4.4 µM and the TGI (M14 melanoma) was 19.6 µM. For the same compound, the TGI (OVCAR-4 ovarian) was 23.9 µM, the TGI (EKVX NSCLC) was 9.52 µM and the TGI (KM12 colon) was greater than 39.7 µM. It also gave a TGI (HCC-2998 colon) greater than 39 µM, a TGI (NCI-H23 lung) greater than 46 µM and a TGI (OVCAR-5 ovarian) of 16.1 µM. It also gave a TGI (NCI-H460 lung) greater than 37.6 µM, a TGI (786-0 renal) of 8.72 µM and a TGI (SW-620 colon) of 22.6 µM. It also gave a TGI (UO-31 renal) greater than 50.6 µM, a TGI (RPMI-8226 leukemia) greater than 38.1 µM and a TGI (OVCAR-8 ovarian) of 32 µM. For the same compound, the TGI (CCRF-CEM leukemia) was 3.74 µM, the TGI (SK-OV-3 ovarian) was 14.8 µM and the TGI (RXF 393 renal) was 2.67 µM. It also gave a TGI (SNB-19 CNS) of 38.5 µM, a TGI (HT29 colon) of 40.3 µM and a TGI (SF-295 CNS) of 9.2 µM. The TGI (COLO 205 colon) was 12.1 µM, the TGI (SK-MEL-28 melanoma) was 27.6 µM and the TGI (HS 578T breast) was 28.1 µM. For the same compound, the TGI (OVCAR-3 ovarian) was 7.04 µM, the TGI (CAKI-1 renal) was 24.9 µM and the TGI (HCT-15 colon) was greater than 36.7 µM. It also gave a TGI (T-47D breast) greater than 48.5 µM, a TGI (NCI/ADR-RES ovarian) greater than 26.3 µM and a TGI (PC-3 prostate) of 12.1 µM. It also gave a TGI (UACC-62 melanoma) of 18.5 µM, a TGI (A498 renal) of 34 µM and a TGI (U251 CNS) greater than 100 µM. The TGI (SK-MEL-2 melanoma) was 26.5 µM, the TGI (SR leukemia) was 22.6 µM and the TGI (MDA-N) was 3.59 µM. The TGI (MCF7 breast) was greater than 40.6 µM, the TGI (ACHN renal) was 23.1 µM and the TGI (K-562 leukemia) was greater than 51.5 µM. It also gave a TGI (MOLT-4 leukemia) of 40.2 µM, a TGI (LOX IMVI melanoma) greater than 41.9 µM and a TGI (SF-539 CNS) of 11.8 µM. It also gave a TGI (HOP-62 NSCLC) of 18.2 µM, a TGI (UACC-257 melanoma) of 18.3 µM and a TGI (TK-10 renal) of 25.3 µM. The TGI (SK-MEL-5 melanoma) was 13 µM.
